Measurements from US20170232043A1, “BACTERIA ENGINEERED TO TREAT DISORDERS INVOLVING THE CATABOLISM OF A BRANCHED CHAIN AMINO ACID” (priority 2015, published 2017).

B1: LeuDH: leucine dehydrogenase from Pseudomonas aeruginosa, expressed in the engineered strain (protein)
chain: MFDMMDAARLEGLHLAQDPATGLKAIIAIHSTRLGPALGGCRYLPYPNDEAAIGDAIRLAQGMSYKAALAGLEQGGGKAVIIRPPHLDNRGALFEAFGRFIESLGGRYITAVDSGTSSADMDCIAQQTRHVTSTTQAGDPSPHTALGVFAGIRASAQARLGSDDLEGLRVAVQGLGHVGYALAEQLAAVGAELLVCDLDPGRVQLAVEQLGAHPLAPEALLSTPCDILAPCGLGGVLTSQSVSQLRCAAVAGAANNQLERPEVADELEARGILYAPDYVINSGGLIYVALKHRGADPHSITAHLARIPARLTEIYAHAQADHQSPARIADRLAERILYGPQ
modifications: Synthetic: leuDH codon-optimized nucleotide sequence
notes: leucine dehydrogenase from Pseudomonas aeruginosa, expressed in the engineered strain
B2: LAADPm: L-AAD derived from P. mirabilis (protein)
chain: MAISRRKFILGGTVVAVAAGAGVLTPMLTREGRFVPGTPRHGFVEGTGGPLPKQDDVVVIGAGILGIMTAINLAERGLSVTIVEKGNIAGEQSSRFYGQAISYKMPDETFLLHHLGKHRWREMNAKVGIDTTYRTQGRVEVPLDEEDLENVRKWIDAKSKDVGSDIPFRTKMIEGAELKQRLRGATTDWKIAGFEEDSGSFDPEVATFVMAEYAKKMGIKIFTNCAARGLETQAGVISDVVTEKGPIKTSRVVVAGGVGSRLFMQNLNVDVPTLPAYQSQQLISAAPNAPGGNVALPGGIFFRDQADGTYATSPRVIVAPVVKESFTYGYKYLPLLALPDFPVHISLNEQLINSFMQSTHWDLNEESPFEKYRDMTALPDLPELNASLEKLKKEFPAFKESTLIDQWSGAMAIAPDENPIISDVKEYPGLVINTATGWGMTESPVSAEITADLLLGKKPVLDAKPFSLYRF
modifications: Synthetic: L-AAD Nucleotide sequence
notes: L-AAD derived from P. mirabilis
B3: BrnQ: low affinity BCAA transporter (protein)
chain: MTHQLRSRDIIALGFMTFALFVGAGNIIFPPMVGLQAGEHVWTAAFGFLITAVGLPVLTVVALAKVGGGVDSLSTPIGKVAGVLLATVCYLAVGPLFATPRTATVSFEVGIAPLTGDSALPLFIYSLVYFAIVILVSLYPGKLLDTVGNFLAPLKIIALVILSVAAIIWPAGSISTATEAYQNAAFSNGFVNGYLTMDTLGAMVFGIVIVNAARSRGVTEARLLTRYTVWAGLMAGVGLTLLYLALFRLGSDSASLVDQSANGAAILHAYVQHTFGGGGSFLLAALIFIACLVTAVGLTCACAEFFAQYVPLSYRTLVFILGGFSMVVSNLGLSQLIQISVPVLTAIYPPCIALVVLSFTRSWWHNSSRVIAPPMFISLLFGILDGIKASAFSDILPSWAQRLPLAEQGLAWLMPTVVMVVLAIIWDRAAGRQVTSSAH
modifications: BCAA transporter BrnQ

Columns and labels:
[1] = tested on: LAD: L-amino acid deaminase of P. vulgaris; details: relative within the enzyme; cited from earlier work
[2] = tested on: Pma: amino acid deaminase gene from P. mirabilis; details: relative within the enzyme; cited from earlier work
[3] = tested on: Pm1: amino acid deaminase gene from P. mirabilis KCTC 2566; details: relative within the enzyme; cited from earlier work
[4] = tested on: rat; details: cited from earlier work
[5] = biological target: LivK (Escherichia coli, UniProt P04816); details: cited from earlier work
[6] = tested on: ATC-inducible Ptet-GFP reporter construct; test: ATC-inducible Ptet-GFP reporter construct, fluorescence in plate reader (Example 28); type: cell-based, E. coli Nissle; details: two-fold decreased inducer, across a range of concentrations
[7] = tested on: nitric oxide inducible PnsrR-GFP reporter construct; test: Nitric oxide inducible PnsrR-GFP reporter construct, fluorescence in plate reader (Example 28); type: cell-based, E. coli Nissle; details: DETA-NO as NO donor, two-fold decreased inducer, across a range of concentrations
[8] = tested on: leucine; test: in vitro leucine degradation assay (leucine in culture medium by LC-MS/MS); type: cell-based, E. coli Nissle

LivK, sequence (P04816 24-369): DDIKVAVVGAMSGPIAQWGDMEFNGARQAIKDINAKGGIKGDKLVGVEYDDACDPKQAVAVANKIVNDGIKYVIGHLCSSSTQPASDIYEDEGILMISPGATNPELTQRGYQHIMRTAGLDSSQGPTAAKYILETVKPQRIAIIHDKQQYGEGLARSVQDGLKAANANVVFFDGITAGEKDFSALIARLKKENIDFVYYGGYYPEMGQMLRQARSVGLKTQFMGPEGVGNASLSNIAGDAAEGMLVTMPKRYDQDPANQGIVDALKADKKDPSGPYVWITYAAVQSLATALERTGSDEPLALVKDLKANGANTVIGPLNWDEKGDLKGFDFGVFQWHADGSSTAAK

Molecule | amino acid deaminase activity of LAD, percentage [1] [%] | amino acid deaminase activity of Pma, percentage [2] [%] | amino acid deaminase activity of Pm1, percentage [3] [%] | also measured
N=C(N)NCCC[C@H](N)C(=O)O [Arg] | 27.3 | 28.2 | 51.2 | 
N[C@@H](Cc1c[nH]c2ccccc12)C(=O)O [Trp] | 41.6 | 3.2 | 10.2 | 
CC(C)CCO [Isopentanol] |  |  |  | Oral LD50 (rat) [4]: >5000 mg/kg
CC(C)C[C@H](N)C(=O)O [Leu, leucine] | 105 | 41.7 | 7.6 | Kd [5]: ~1000 nM
N[C@@H](Cc1c[nH]cn1)C(=O)O [His] | 79.9 | 0 | 100 | 
C[C@H](N)C(=O)O [Ala] | 3.5 | 0.6 | 9 | 
N[C@@H](CO)C(=O)O [Ser] |  | 1.3 | 3.8 | 
NC(=O)C[C@H](N)C(=O)O [Asn] | 43.6 | 0 | 5.2 | 
Cc1c2c(c(O)c3c(O)cccc13)C(=O)[C@]1(O)C(=O)C(C(N)=O)=C(O)[C@@H](N(C)C)[C@@H]1C2 [ATC, anhydrotetracycline] |  |  |  | expression of GFP (relative florescence units) [6]: able to induce the expression of GFP
N[C@@H](CS)C(=O)O [Cys] |  | 1.9 | 9 | 
NCCCC[C@H](N)C(=O)O [Lys] | 3.5 | 1.9 | 7.6 | 
NC(=O)CC[C@H](N)C(=O)O [Gln] | 1.1 | 1.3 | 5.2 | 
CC(C)CO [Isobutanol] |  |  |  | Oral NOAEL* (rat) ([4]; No-Observed-Adverse-Effect): >1450 mg/kg/day
O=C(O)[C@@H]1CCCN1 [Pro] | 0.7 | 3.2 | 14.2 | 
CSCC[C@H](N)C(=O)O [Met] | 100 | 16.7 | 2.6 | 
NCC(=O)O [Gly] |  | 1.3 | 7.6 | 
NCCN(CCN)[N+]([O-])=NO [NO] |  |  |  | expression of GFP (relative florescence units) [7]: able to induce the expression of GFP
N[C@@H](CCC(=O)O)C(=O)O [Glu] | 1.1 | 0.6 | 35.8 | 
N[C@@H](Cc1ccccc1)C(=O)O [Phe] | 37.4 | 100 | 46.2 | 
CC[C@H](C)[C@H](N)C(=O)O [Ilu, isoleucine] |  | 2.6 | 6.4 | 
N[C@@H](Cc1ccc(O)cc1)C(=O)O [Tyr] | 92.8 | 0.6 | 9 | 
N[C@@H](CC(=O)O)C(=O)O [Asp] | 55.4 | 10.9 | 2.6 | 
CC(C)[C@H](N)C(=O)O [Val, valine] |  | 1.3 | 6.4 | 
C[C@@H](O)[C@H](N)C(=O)O [Thr] | 1.1 | 0 | 12.8 | 
B1 |  |  |  | rate of leucine degradation ([8]; background strain Nissle ΔleuE, lacZ:tet-livKHMGF): about 160 nmol/10^9 CFU/hour
B2 |  |  |  | leucine degradation rate, comparison of adh2, yqhD, padA and of LAADPv, LAADPm ([8]; SYN469 background, with L-AAD and kivD): good alternative to LAADPV
B3 |  |  |  | rate of leucine degradation with overexpression of BrnQ ([8]; LeuE and ilvC knockout strain with leuDH-kivD-padA on high copy plasmid, tet inducible brnQ on low copy plasmid): greatly improves the rate of leucine degradation
